Reference: publication PMC5458078, “Global mapping of CARM1 substrates defines enzyme specificity and substrate recognition” (Nature Communications, 2017)

How the values were obtained:
MCF7 cells = assay: Quantitative nanoLC-MS/MS (TMT) of ADMA-containing peptides, CARM1 KO vs parental; type: cell-based, human; set-up: Fold change KO/WT: scale not given here
MCF7 CARM1 KO cells = assay: Quantitative MS of ADMA-containing peptides in MCF7 CARM1 KO cells expressing CARM1 28-608 or CARM1 140-608, and in CARM1 KO; type: cell-based, human
[1] = ADMA-containing peptide, MCF7, CARM1 knockout (KO1-3) vs wild type (WT1-3), TMT 6-plex experiment #1
[2] = log2 scale ratio, mean of n = 3
[3] = MCF7, CARM1 KO vs WT, three biological replicates each
[4] = ratio on log2 scale, mean of 3 replicates
[5] = MCF7 CARM1 knockout vs wild type, 3 biological replicates each, values are on log2 scale
[6] = difference of log2 means, CARM1 140-608 vs WT
[7] = difference of log2 means, KO vs WT
[8] = MCF7, CARM1 KO (KO1-KO3) vs wild type (WT1-WT3)
[9] = MCF7, CARM1 knockout vs wild type, n = 3 each
[10] = CARM1 140-608 vs WT, mean of 3 replicates, log2
[11] = KO vs WT, mean of 3 replicates, log2
[12] = ADMA-containing peptide, CARM1 knockout (KO) vs wild type (WT) MCF7 cells, 6-plex TMT experiment #1, three biological replicates each, sheet "MCF7"
[13] = CARM1 140-608 versus WT, mean of three replicates (log2)
[14] = KO versus WT, mean of three replicates (log2)
[15] = mean, CARM1 140-608 versus WT (log2 scale)
[16] = mean, CARM1 KO versus WT (log2 scale)

## QrGVSHAMGGrGGINR
MCF7 cells; [1]
  Fold change KO/WT: 0.102
MCF7 CARM1 KO cells; [2]
  CARM1 140-608/WT: 0.2049
  KO/WT: 0.2554

## LQEVSLrQGMr
MCF7 cells; [3]
  Fold change KO/WT: -0.8557
MCF7 CARM1 KO cells; [4]
  CARM1 140-608/WT: 0.07113
  KO/WT: -0.8557

## MAPALSGANLTSPrVPLSAYER
MCF7 cells; [1]
  Fold change KO/WT: -4.135
MCF7 CARM1 KO cells; [2]
  CARM1 140-608/WT: -3.667
  KO/WT: -5.009

## EIrYSLLPFANESGTSAAAEVNR
MCF7 cells; [5]
  Fold change KO/WT: -3.011
MCF7 CARM1 KO cells; [6]
  CARM1 140-608/WT: -1.601
MCF7 CARM1 KO cells; [7]
  KO/WT: -3.011

## VrATSVLPrYGPPCLFK
MCF7 cells; [1]
  Fold change KO/WT: -2.652
MCF7 CARM1 KO cells; [2]
  CARM1 140-608/WT: -1.769
  KO/WT: -2.652

## MGTPVPRPPQDMGQIGVrTPLGPrVAAPVGPVGPTPTVLPMGAPVPRPrGPPPPPGDENR
MCF7 cells; [8]
  Fold change KO/WT: -3.388
MCF7 CARM1 KO cells; CARM1 140-608 vs WT, mean of 3 replicates (log2 scale)
  CARM1 140-608/WT: -2.483
MCF7 CARM1 KO cells; KO vs WT, mean of 3 replicates (log2 scale)
  KO/WT: -3.388

## QIrFSQGQQLVTK
MCF7 cells; [3]
  Fold change KO/WT: -2.537
MCF7 CARM1 KO cells; [4]
  CARM1 140-608/WT: -1.837
  KO/WT: -2.537

## CAGFLEPTWLAAPPrLArPPrFYEAGEELTGPGAVAAAR
MCF7 cells; [9]
  Fold change KO/WT: -3.713
MCF7 CARM1 KO cells; [4]
  CARM1 140-608/WT: -2.314
  KO/WT: -3.713

## LEPPLTPrCPLDFAPQTLSFPYAR
MCF7 cells; [3]
  Fold change KO/WT: -5.801
MCF7 CARM1 KO cells; [10]
  CARM1 140-608/WT: -2.973
MCF7 CARM1 KO cells; [11]
  KO/WT: -5.801

## VrLPCQPLVPGPELRPSAAELK
MCF7 cells; [5]
  Fold change KO/WT: -2.704
MCF7 CARM1 KO cells; [6]
  CARM1 140-608/WT: -1.578
MCF7 CARM1 KO cells; [7]
  KO/WT: -2.704

## LLALSGPGGGrGrGSLLLR
MCF7 cells; [12]
  Fold change KO/WT: 0.2339
MCF7 CARM1 KO cells; [13]
  CARM1 140-608/WT: -0.3383
MCF7 CARM1 KO cells; [14]
  KO/WT: -0.09674

## KLFIGGLSFETTDDSLr
MCF7 cells; [9]
  Fold change KO/WT: -0.1026
MCF7 CARM1 KO cells; [15]
  CARM1 140-608/WT: -0.2797
MCF7 CARM1 KO cells; [16]
  KO/WT: 0.2164

## LYrYSPQSFLPDSTIQK
MCF7 cells; [5]
  Fold change KO/WT: -2.857
MCF7 CARM1 KO cells; [15]
  CARM1 140-608/WT: -2.17
MCF7 CARM1 KO cells; [16]
  KO/WT: -2.857

## SKPQLArYLGGSMDLSTFDFR
MCF7 cells; [12]
  Fold change KO/WT: -0.3057
MCF7 CARM1 KO cells; [6]
  CARM1 140-608/WT: -0.3331
MCF7 CARM1 KO cells; [7]
  KO/WT: -0.5289

## RPAQSVNrGGMTR
MCF7 cells; [3]
  Fold change KO/WT: 0.2083
MCF7 CARM1 KO cells; [10]
  CARM1 140-608/WT: 0.0581
MCF7 CARM1 KO cells; [11]
  KO/WT: 0.3659

## AMLPGSPLFTrAPPPK
MCF7 cells; [12]
  Fold change KO/WT: -3.62
MCF7 CARM1 KO cells; [13]
  CARM1 140-608/WT: -2.658
MCF7 CARM1 KO cells; [14]
  KO/WT: -3.62

## GArGLMNGYR
MCF7 cells; [3]
  Fold change KO/WT: 0.02481
MCF7 CARM1 KO cells; [10]
  CARM1 140-608/WT: 0.7786
MCF7 CARM1 KO cells; [11]
  KO/WT: 0.02481

## RPPTPGPDTSVSGPrLTLALAPGPPPPPSR
MCF7 cells; [12]
  Fold change KO/WT: -1.877
MCF7 CARM1 KO cells; [6]
  CARM1 140-608/WT: -1.4
MCF7 CARM1 KO cells; [7]
  KO/WT: -1.877

## GGAPFQFGGQrRPLLSQLK
MCF7 cells; [9]
  Fold change KO/WT: -0.3698
MCF7 CARM1 KO cells; [4]
  CARM1 140-608/WT: 0.1701
  KO/WT: 0.08114

## GTPGPPPAHGAALQPHPrVNFCPLPSEQCYQAPGGPEDR
MCF7 cells; CARM1 KO vs wild type MCF7 cells, 3 biological replicates each
  Fold change KO/WT: -0.7925
MCF7 CARM1 KO cells; CARM1 140-608 versus WT, difference of mean log2 values
  CARM1 140-608/WT: -1.327
MCF7 CARM1 KO cells; CARM1 KO versus WT, difference of mean log2 values
  KO/WT: -0.7925

## DPFSQALSrCQLQQAAALNAQHK
MCF7 cells; [9]
  Fold change KO/WT: -2.1
MCF7 CARM1 KO cells; [4]
  CARM1 140-608/WT: -1.585
  KO/WT: -2.1

## DFAFYNPrLQGK
MCF7 cells; [3]
  Fold change KO/WT: -2.168
MCF7 CARM1 KO cells; [10]
  CARM1 140-608/WT: -2.071
MCF7 CARM1 KO cells; [11]
  KO/WT: -2.382

## TVPMGGVrLVTPVTVSAVKPAVTTLVVK
MCF7 cells; [9]
  Fold change KO/WT: -2.889
MCF7 CARM1 KO cells; [15]
  CARM1 140-608/WT: -0.6483
MCF7 CARM1 KO cells; [16]
  KO/WT: -2.889

## FEGQHNQLGGNLrFEGPHGQPGVGIrFEGPLVQQGGGMrFEGPSVPGGGLR
MCF7 cells; [12]
  Fold change KO/WT: -1.477
MCF7 CARM1 KO cells; [13]
  CARM1 140-608/WT: 0.6048
MCF7 CARM1 KO cells; [14]
  KO/WT: -1.668

## TYQASSAAFrYTAGTPYK
MCF7 cells; [9]
  Fold change KO/WT: -4.425
MCF7 CARM1 KO cells; [4]
  CARM1 140-608/WT: -4.171
  KO/WT: -4.425

## LQGQQFLNQSrQALELK
MCF7 cells; [12]
  Fold change KO/WT: -1.9617
MCF7 CARM1 KO cells; [13]
  CARM1 140-608/WT: 0.6173
MCF7 CARM1 KO cells; [14]
  KO/WT: -0.8589

## FEGGHGPSGAAIrFDGPHGQPGGGIrFEGPLLQQGVGMrFEGPHGQSVAGLR
MCF7 cells; [12]
  Fold change KO/WT: -1.343
MCF7 CARM1 KO cells; [13]
  CARM1 140-608/WT: -0.8121
MCF7 CARM1 KO cells; [14]
  KO/WT: -1.343

## LVPrLSVGAVSSKPTTPTIATPQTVSVPNK
MCF7 cells; [1]
  Fold change KO/WT: -1.953
MCF7 CARM1 KO cells; [2]
  CARM1 140-608/WT: -1.646
  KO/WT: -1.953

## LHPQLHrAPIR
MCF7 cells; [12]
  Fold change KO/WT: 1.076
MCF7 CARM1 KO cells; [13]
  CARM1 140-608/WT: -0.07051
MCF7 CARM1 KO cells; [14]
  KO/WT: 1.076

## QLESLWSDSPAPPGPQAGPPSRPPrYSSSSIPEPFGSR
MCF7 cells; [8]
  Fold change KO/WT: -2.771
MCF7 CARM1 KO cells; [13]
  CARM1 140-608/WT: -1.865
MCF7 CARM1 KO cells; [14]
  KO/WT: -2.771

## APPGGLHAPrLSLEGAAR
MCF7 cells; [3]
  Fold change KO/WT: -2.121
MCF7 CARM1 KO cells; [10]
  CARM1 140-608/WT: -1.8169
MCF7 CARM1 KO cells; [11]
  KO/WT: -2.946

## GILPMNPrNMMNHSQVGQGIGIPSR
MCF7 cells; [9]
  Fold change KO/WT: -1.864
MCF7 CARM1 KO cells; [4]
  CARM1 140-608/WT: -1.1659
  KO/WT: -1.864

## ACLTSGTPGPrAQLTAVTPDTR
MCF7 cells; [5]
  Fold change KO/WT: -1.3764
MCF7 CARM1 KO cells; [15]
  CARM1 140-608/WT: -1.022
MCF7 CARM1 KO cells; [16]
  KO/WT: -1.3764
